Results published in patent US9211313B2, “Methods and compound to inhibit Ca2+ permeable cation conductance” (priority 2011, dated 2015).

What was measured:
[1] = system: deoxygenation-activated cation conductance in human SS red cells; experiment: On-cell patch clamp of deoxygenation-activated cation conductance, symmetric Na methanesulfonate; format: cell-based; details: on-cell patch; for effect on deoxygenation-induced increase in cation conductance: 1 μM in the pipette / outside of membrane
Method: Blood cell preparation: Human SS and AA blood was obtained under IRB-approved protocols of Children's Hospital and Beth Israel Deaconess Medical Center. After buffy coat removal and 5 washes in standard human red cell wash solution containing (in mM) 150 choline Cl, 1 MgCl, and 10 Tris-MOPS, pH 7.4, red cells were resuspended in storage solution containing (in mM) 145 KCl, 15 NaCl, and 10 HEPES, pH 7.4, then kept at 4° C. until used. Human red cells allowed to settle on coverslips were mounted on an inverted microscope in a 200 μl open chamber (WPI, Sarasota, Fla.) and superfused 15 min at room temperature by bath solution containing (in mM) 150 Na methanesulfonate, 10 Na EDTA, and 10 Na HEPES, pH 7.4.
Mouse red cells allowed to settle on coverslips were superfused 15 min with bath solution containing (in mM) either 150 mM Na methanesulfonate, 10 Na EDTA, and 10 Na HEPES, pH 7.4; or 140 NaCl, 4 KCl, 1CaCl2, 1 MgCl2, 10 Na HEPES, pH 7.4. Deoxygenation was achieved by switching superfusate to the same solution gassed ≧30 min prior to the experiment with 100% N2, and by flushing of the perfusion chamber with N2 during the deoxygenation period. The resulting bath pO2 was 18 mm Hg as measured by oxygen electrode (WPI). In the experiments of FIG. 1, deoxygenated cells were subsequently re-oxygenated by exposure to the same superfusate equilibrated with room air.
Washed human or mouse red cells in solution containing (in mM) 140 NaCl, 5 KCl, 1 CaCl2, 1 MgCl2, 10 Na HEPES, pH 7.4 were exposed for 1 hr on a rotary platform in a 37° C. incubator to 25 ppm carbon monoxide (CO) in 5% CO2. CO-exposed cells were then subjected to patch clamp or to calcium imaging experiments within 60 min after return to room air, using the solutions indicated.
On-cell patch clamp: Borosilicate pipettes (Corning 7052) pulled with a Narishige two stage puller or a Sutter P97 puller and fire-polished to resistances of 10-20 MΩ were front-filled and then backfilled. Symmetric bath and pipette solutions for studies of seal resistance stability during reversibility tests of the deoxygenation-activated conductance in SAD mouse red cells were (in mM) 140 NaCl, 4 KCl, 1 CaCl2, 1 MgCl2, 10 Na HEPES, pH 7.4. These conditions yielded tight seals in 13% of patch attempts on SAD cells. For study of deoxygenation-induced monovalent cation permeation in the absence of bath Ca^2+ and Mg^2+ recorded in SAD and Berkeley mouse cells and in human cells, symmetric bath and pipette solutions contained (in mM) 150 Na methanesulfonate, 10 Na EDTA, and 10 Na HEPES, pH 7.4. These conditions yielded tight seals in 16% of patch attempts on SAD mouse red cells, 26% of attempts on Berkeley mouse cells, and 30% of attempts on human SS cells. For study of Ca^2+ permeation in human SS cells, bath and pipette solutions contained (in mM) 100 CaCl2, 10 Na HEPES, pH 7.4. These conditions yielded tights seals on 44% of attempts. For all conditions tested in human red cells, 70% of tight seals were sustained through the solution change accompanying deoxygenation to allow recording of current activity.
On-cell patch currents were recorded with the Axopatch 1-D amplifier (Axon Instruments/Molecular Devices, Sunnyvale, Calif.). Holding potential was −Vp=−50 mV (expressed as the negative of the pipette potential (e.g., equivalent to the intracellular potential with respect to the pipette). To determine current-voltage relationships (I-V curves) in Fetchex or Clampex (PCLAMP, Axon Instruments), the realtime control window in gap-free mode was used to record current traces of 10-30 sec duration at holding potentials ranging from −100 to +100 mV, in 25 mV increments. The bath reference electrode was a silver chloride wire with a 3 M KCl agar bridge. Data was filtered at 500 Hz, digitized at 2 kHz by Clampex, and analyzed offline by Fetchan and Pstat or by Clampfit subroutines of PCLAMP. Holding potentials in on-cell patch experiments were expressed as −Vp, the negative of the pipette potential.

[2] = system: Berkeley sickle mouse red cells; experiment: Fluo-3 fluorescence measurement of [Ca2+]i during deoxygenation, Berkeley cells; format: cell-based; details: 1 μM bath preincubation
Method: Blood was withdrawn by cardiac puncture or from the tail vein of C57B16/J wildtype mice, SAD sickle mice, or Berkeley sickle mice into heparinized syringes by IACUC-approved protocols of Beth Israel Deaconess Medical Center. Buffy coat-depleted cells were washed 5 times in standard mouse red cell wash solution containing (in mM) 172 choline Cl, 10 sucrose, 10 Na Tris-MOPS, pH 7.4, resuspended in storage solution, and kept at 4° C. until use.
Fluorescence measurements of cytosolic [Ca^2+] […]
Measurement of relative changes in [Ca^2+]i by Fluo-3 fluorescence emission was previously validated in intact human (Yang et al. 2000, Blood, 95(7):2421-2425; Andrews et al. 2002, Blood, 199(9):3392-3399) and mouse red cells (Akel et al. 2007, Amer. J. Physiol., 292(5):C1759-1767). […] Fluorescence emission (proportional to [Ca^2+]i) from a 535ds20 bandpass filter was collected from all attached single cells within the arbitrarily selected visual field. […]
Fluo-3 fluorescence from attached cells on each coverslip was recorded 60 sec in room air and then for 10 min after onset of perfusion chamber flushing with humidified 100% N2. […] The y-axis value of 0% change in Fluo-3 fluorescence intensity represented mean intensity recorded from all cells within the coverslip visual field during the 60 sec prior to deoxygenation.

Grammastola spatulata mechanotoxin 4 (GCLEFWWKCNPNDDKCCRPKLKCSKLFKLCNFSF; listed as Grammastola spatulata) [GsMTx-4]
effect on deoxygenation-induced increase in cation conductance [1]: prevented
effect on deoxygenation-induced increase in cation conductance ([1]; listed as GsMTx4): completely inhibit
NPo after deoxygenation ([1]; 1 μM in the pipette, n=6): 0.003±0.003
effect on deoxygenation-increased [Ca2+]i [2]: inhibited nearly completely
effect on deoxygenation-increased [Ca2+]i ([2]; listed as GsMtx-4): prevented
